One assay has as its target Mu-type opioid receptor (Mus musculus, UniProt P42866). Nature of the assay: Displacement of [3H]DAMGO from mu opioid receptor in mouse cerebellum.
Assay [1] addresses Delta-type opioid receptor (Mus musculus, UniProt P32300). Nature of the assay: Displacement of [3H]DPDPE from delta opioid receptor in mouse cerebellum. For orientation: Displacement assays read how much labelled ligand stays bound in the presence of the test substance.
In assay [2] the target is Kappa-type opioid receptor (Cavia porcellus, UniProt P41144). Nature of the assay: Displacement of [3H]U-69,593 from kappa opioid receptor in guinea pig cerebellum.
Chain of Kappa-type opioid receptor (P41144 whole entry): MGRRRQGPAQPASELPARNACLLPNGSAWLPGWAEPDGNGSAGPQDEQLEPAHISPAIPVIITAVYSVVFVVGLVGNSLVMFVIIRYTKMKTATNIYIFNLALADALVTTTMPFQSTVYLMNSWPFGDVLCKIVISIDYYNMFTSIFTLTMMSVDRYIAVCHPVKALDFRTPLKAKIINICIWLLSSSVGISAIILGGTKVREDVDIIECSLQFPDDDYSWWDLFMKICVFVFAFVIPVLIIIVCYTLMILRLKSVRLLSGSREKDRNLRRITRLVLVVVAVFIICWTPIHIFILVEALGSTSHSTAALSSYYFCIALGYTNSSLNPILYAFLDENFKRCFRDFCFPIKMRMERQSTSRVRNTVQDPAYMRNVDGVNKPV
A short description of assay [3]: Selectivity ratio of Ki for mu opioid receptor in mouse cerebellum to Ki for kappa opioid receptor in guinea pig cerebellum. The class given is tissue-based.
A short description of assay [4]: Selectivity ratio of Ki for delta opioid receptor in mouse cerebellum to Ki for kappa opioid receptor in guinea pig cerebellum. The class given is tissue-based.

From ChEMBL document CHEMBL2057184, “Essential structure of opioid κ receptor agonist nalfurafine for binding to the κ receptor 2: synthesis of decahydro(iminoethano)phenanthrene derivatives and their pharmacologies” (Bioorg Med Chem Lett, 2012) come the findings set out here.

Chain of Mu-type opioid receptor (P42866 whole entry): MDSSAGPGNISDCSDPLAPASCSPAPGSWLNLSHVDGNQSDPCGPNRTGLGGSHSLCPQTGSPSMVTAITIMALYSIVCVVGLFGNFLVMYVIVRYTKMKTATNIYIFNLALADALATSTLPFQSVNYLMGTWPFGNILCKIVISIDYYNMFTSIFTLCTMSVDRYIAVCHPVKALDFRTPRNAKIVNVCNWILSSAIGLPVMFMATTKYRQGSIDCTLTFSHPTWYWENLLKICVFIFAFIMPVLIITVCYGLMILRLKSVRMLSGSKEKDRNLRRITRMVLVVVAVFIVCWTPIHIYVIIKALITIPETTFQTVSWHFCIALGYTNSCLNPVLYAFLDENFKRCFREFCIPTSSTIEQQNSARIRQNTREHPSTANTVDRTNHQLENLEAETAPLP
Chain of Delta-type opioid receptor (P32300 whole entry): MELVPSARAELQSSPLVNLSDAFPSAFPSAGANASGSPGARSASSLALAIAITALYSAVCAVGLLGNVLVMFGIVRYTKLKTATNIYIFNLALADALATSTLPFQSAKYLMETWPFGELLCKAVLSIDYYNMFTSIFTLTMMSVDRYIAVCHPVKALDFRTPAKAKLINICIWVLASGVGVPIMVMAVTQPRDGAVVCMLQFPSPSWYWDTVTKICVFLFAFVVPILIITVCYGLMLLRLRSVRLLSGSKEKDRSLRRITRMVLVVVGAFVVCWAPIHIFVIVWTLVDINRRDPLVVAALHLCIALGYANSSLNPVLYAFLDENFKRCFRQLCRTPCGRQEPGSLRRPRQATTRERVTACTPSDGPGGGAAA

One may read the Ki as the dissociation constant of the complex between target and ligand, obtained from inhibition or displacement. The low end stands for tighter binding, the high end for weaker binding. On to `CN[C@@H]1CC[C@@]2(O)[C@H]3CC4=C(CCCC4)[C@@]2(CCN3CC2CC2)C1`, for which the Ki on Mu-type opioid receptor is greater than 1000 nM; in assay [1], greater than 1000 nM; in assay [2], 352 nM.

On to `CN(C(=O)/C=C/c1ccoc1)[C@@H]1CC[C@@]2(O)[C@H]3Cc4cccc5c4[C@@]2(CCN3CC2CC2)[C@H]1O5`, for which the Ki at Mu-type opioid receptor is 169 nM; in assay [1], greater than 1000 nM; in assay [2] it was 2.82 nM. For the same molecule, the Ratio Ki in assay [3] is 59.8.

Regarding `CN(C(=O)/C=C/c1ccoc1)[C@@H]1CC[C@@]2(O)[C@H]3CC4=C(CCCC4)[C@@]2(CCN3CC2CC2)C1`, the Ki stood at 83.2 nM at Mu-type opioid receptor, 308 nM in assay [1] and 5.64 nM in assay [2]. For the same molecule, the Ratio Ki in assay [3] is 14.7; in assay [4], 54.5.

As to `CN(C(=O)/C=C/c1ccoc1)[C@@H]1CC[C@@]2(O)[C@H]3Cc4ccc(O)cc4[C@@]2(CCN3CC2CC2)C1`, the Ki at Mu-type opioid receptor came to 0.43 nM; in assay [1], 2.09 nM; in assay [2], 0.18 nM. Moreover, the Ratio Ki in assay [3] is 2.42; in assay [4], 11.8.

`CN(C(=O)/C=C/c1ccoc1)[C@@H]1CC[C@H]2[C@H]3CC4=C(CCCC4)[C@@]2(CCN3CC2CC2)C1`: the Ki at Mu-type opioid receptor came out at 24.6 nM; in assay [1], 204 nM; in assay [2], 12.7 nM. Moreover, the figures for the Ratio Ki in assay [3] and in assay [4] were 1.94 and 16.1, respectively.

`O=C1CC[C@@]2(O)[C@H]3CC4=C(CCCC4)[C@@]2(CCN3CC2CC2)C1`: the values for the Ki (on Mu-type opioid receptor; in assay [1]; in assay [2]) were 391 nM, 939 nM and 787 nM, respectively. The Ratio Ki in assay [3] came out at 0.5; in assay [4] it was 1.19.

In the case of `CN(C(=O)/C=C/c1ccoc1)[C@@H]1CC[C@H]2[C@H]3Cc4ccc(O)c5c4[C@@]2(CCN3CC2CC2)[C@H]1O5`, the Ki is 0.51 nM at Mu-type opioid receptor, 8.82 nM in assay [1] and 0.35 nM in assay [2]. Also, the Ratio Ki in assay [3] amounted to 1.47; in assay [4], 25.3.

Take `CN(C(=O)/C=C/c1ccoc1)[C@@H]1CC[C@H]2CN(CC3CC3)CC[C@@H]2C1`: the Ki at Mu-type opioid receptor was greater than 100000 nM; in assay [1], greater than 100000 nM; in assay [2], 19100 nM.
